Converted amounts (≈) assume the structure as drawn. Like-named read-outs stand apart in the source and are kept apart here.
Columns and labels:
[1] = test system: P. aeruginosa A-9843a; test: Protective effect in the intramuscular treatment of infected mice (PD50); assay type: in vivo; conditions: Pseudomonas aeruginosa, A9843A, im
Experimental: The PD50 (dose in mg/kg required to give protection to 50% of the infected mice) is indicated.
Treatment Schedule: Mice were treated i.m. with drugs 0 and 2 hours post-infection; 5 mice per dose were used for each test
*For compound of Ex. 2, mice were infected i.p. with 2 × 10^9
compounds of Ex. 4 and 5, mice were infected i.p. with ~9 ×
were treated i.m. with drugs 0 and 2 h postinfection.

[2] = test system: K. pneumoniae A20468; test: In vitro MIC, tube dilution; assay type: cell-based; conditions: Klebsiella pneumoniae, A20468, tube dilution, Nutrient Broth, overnight incubation at 37° C.
[3] = test system: B. fragilis A22863; test: In vitro MIC, tube dilution; assay type: cell-based; conditions: Bacteroides fragilis, Nutrient Broth, overnight incubation at 37° C.
Text: (§1) N-Formimidoyl thienamycin was included as a comparison compound.

[4] = test system: E. cloacae A-9569; test: In vitro MIC, tube dilution; assay type: cell-based; conditions: Enterobacter cloacae, A9569, Nutrient Broth, overnight incubation at 37° C.
Text: as §1

[5] = test system: B. fragilis A22696; test: In vitro MIC, tube dilution; assay type: cell-based; conditions: Bacteroides fragilis, Nutrient Broth, overnight incubation at 37° C.
Text: as §1

[6] = test system: B. fragilis A22053; test: In vitro MIC, tube dilution; assay type: cell-based; conditions: Bacteroides fragilis, Nutrient Broth, overnight incubation at 37° C.
Text: as §1

[7] = test system: S. pneumoniae A-9585; test: In vitro MIC, tube dilution; assay type: cell-based; conditions: overnight incubation at 37° C.; for MIC: Streptococcus pneumoniae, A9585, Nutrient Broth
[8] = test system: S. pyogenes A-9604; test: In vitro MIC, tube dilution; assay type: cell-based; conditions: Nutrient Broth, overnight incubation at 37° C.; for MIC: Streptococcus pyogenes, A9604, tube dilution
[9] = test system: S. marcescens A20019; test: In vitro MIC, tube dilution; assay type: cell-based; conditions: tube dilution, Nutrient Broth, overnight incubation at 37° C.
[10] = test system: P. aeruginosa A20481; test: Protective effect in the intramuscular treatment of infected mice (PD50); assay type: in vivo; conditions: Pseudomonas aeruginosa, A20481, im; mice infected i.p. (Ex. 2: 1 × 10^5 organisms), treated i.m. 0 and 2 h postinfection
[11] = test system: P. aeruginosa A-9843A; test: In vitro MIC, tube dilution; assay type: cell-based; conditions: Pseudomonas aeruginosa, A9843A, Nutrient Broth, overnight incubation at 37° C.
[12] = test system: P. mirabilis A-9900; test: In vitro MIC, tube dilution; assay type: cell-based; conditions: Nutrient Broth, overnight incubation at 37° C.; for MIC: Proteus mirabilis, A9900, tube dilution
[13] = test system: P. rettgeri A22424; test: In vitro MIC, tube dilution; assay type: cell-based; conditions: Providencia rettgeri, A22424, tube dilution, Nutrient Broth, overnight incubation at 37° C.
[14] = test system: S. aureus A-9606 (Pen-res.); test: In vitro MIC, tube dilution; assay type: cell-based; conditions: Nutrient Broth, overnight incubation at 37° C.; for MIC: Staphylococcus aureus
[15] = Urinary recovery after intramuscular administration to mice; assay type: in vivo; conditions: mouse, urine, im, 20 mg/kg, mice, i.m. 20 mg/kg, 6-24 hours after administration; read-out: Percentage of Dose Recovered in urine, 6-24 hours
Experimental: Compounds were solubilized in 0.1 M phosphate buffer pH 7. Values are from a single test; 4 mice per compound.
(§2) Also shown is the urinary recovery in the mice.
***Recovery based on 0-6 hour collection

[16] = test system: S. faecalis A20688; test: In vitro MIC, tube dilution; assay type: cell-based; conditions: Nutrient Broth, overnight incubation at 37° C.; for MIC: Enterococcus faecalis, A20688, tube dilution
[17] = test system: E. cloacae A-9656; test: In vitro MIC, tube dilution; assay type: cell-based; conditions: tube dilution, Nutrient Broth, overnight incubation at 37° C.
[18] = test system: P. morganii A15153; test: In vitro MIC, tube dilution; assay type: cell-based; conditions: Morganella morganii, A15153, tube dilution, Nutrient Broth, overnight incubation at 37° C.; read-out: MIC P. morganii A15153
[19] = test system: K. pneumoniae A-9664; test: In vitro MIC, tube dilution; assay type: cell-based; conditions: Nutrient Broth, overnight incubation at 37° C.; for MIC: Klebsiella pneumoniae, A9664, tube dilution
[20] = Blood levels in mice after intramuscular administration; assay type: in vivo; conditions: mouse, intramuscular dose of 20 mg/kg
Text: Compounds were solubilized in 0.1 M phosphate buffer pH 7. Values are fro
a single test; 4 mice used per compound.
*t1/2 refers to halflife in minutes
**AUC refers to the area under the blood concentrationtime curve
as §2
Compounds were solubilized in 0.1 M phosphate buffer, pH 7.
Values based on a single test; 4 mice per compound.
*T1/2 refers to halflife in minutes

[21] = test system: P. aeruginosa A21213; test: In vitro MIC, tube dilution; assay type: cell-based; conditions: Nutrient Broth, overnight incubation at 37° C.; for MIC: Pseudomonas aeruginosa, A21213, tube dilution
[22] = test system: S. aureus A-9606; test: Protective effect in the intramuscular treatment of infected mice (PD50); assay type: in vivo; conditions: Staphylococcus aureus, A9606, im, read-out: PD50/treatment, S. aureus A-9606, mice infected i.p. (Ex. 2: 2 × 10^9 organisms; Ex. 4 and 5: ~9 × 10^7), treated i.m. 0 and 2 h postinfection
[23] = tube dilution, additional data table, listed as MK 0787

For `C[C@@H](O)[C@H]1C(=O)N2C(C(=O)O)=C(SCCN=CN)C[C@H]12` [N-Formimidoyl Thienamycin, N-formimidoyl thienamycin, reference compound], the ED50 ([1]; read-out: PD50/treatment, P. aeruginosa A9843A) was 1 mg/kg, the ED50 ([1]; mice, i.m., *Historical data, read-out: PD50/Treatment, P. aeruginosa A-9843a (historical data)) was 0.5 mg/kg and the MIC [2] was 0.06 µg/mL (≈ 0.2 µM). The MIC [3] was 1 µg/mL (≈ 3.34 µM), the MIC [4] was 0.06 µg/mL (≈ 0.2 µM) and the MIC [5] was 0.13 µg/mL (≈ 0.434 µM). The MIC [6] was 0.06 µg/mL (≈ 0.2 µM), the “MIC S. pneumoniae A-9585” value ([7]; Nutrient Broth, additional data table, listed as MK 0787) was 0.001 µg/mL (≈ 0.00334 µM) and the MIC [7] was 0.004 µg/mL (≈ 0.0134 µM). The MIC ([7]; additional data table) was 0.002 µg/mL (≈ 0.00668 µM), the MIC [8] was 0.001 µg/mL (≈ 0.00334 µM) and the MIC ([8]; additional data table) was 0.002 µg/mL (≈ 0.00668 µM). The “MIC S. pyogenes A-9604” value [8, 23] was 0.001 µg/mL (≈ 0.00334 µM), the MIC ([9]; Serratia marcescens, A20019) was 0.03 µg/mL (≈ 0.1 µM) and the “MIC S. marcescens A20019” value ([9]; additional data table) was 0.03 µg/mL (≈ 0.1 µM). The ED50 [10] was 0.4 mg/kg, the MIC [11] was 1 µg/mL (≈ 3.34 µM) and the MIC ([11]; additional data table) was 1 µg/mL (≈ 3.34 µM). For the same compound, the MIC [12] was 0.06 µg/mL (≈ 0.2 µM), the MIC ([12]; additional data table) was 0.03 µg/mL (≈ 0.1 µM) and the “MIC P. mirabilis A-9900” value [12, 23] was 0.06 µg/mL (≈ 0.2 µM). The MIC [13] was 0.25 µg/mL (≈ 0.835 µM), the MIC ([13]; additional data table) was 0.13 µg/mL (≈ 0.434 µM) and the “MIC S. aureus (Pen-res.) A-9606” value ([14]; additional data table, listed as MK 0787) was 0.004 µg/mL (≈ 0.0134 µM). The MIC ([14]; additional data table, read-out: MIC S. aureus (Pen-res.) A-9606) was 0.008 µg/mL (≈ 0.0267 µM), the MIC ([14]; read-out: MIC S. aureus A-9606 (Pen-res.)) was 0.008 µg/mL (≈ 0.0267 µM) and the dose excreted at 24 h [15] was less than 0.1%. The MIC [16] was 0.5 µg/mL (≈ 1.67 µM), the MIC ([16]; additional data table) was 0.25 µg/mL (≈ 0.835 µM) and the “MIC S. faecalis A20688” value [16, 23] was 0.5 µg/mL (≈ 1.67 µM). For the same compound, the MIC ([17]; Enterobacter cloacae, A9656) was 0.06 µg/mL (≈ 0.2 µM), the “MIC E. cloacae A-9656” value ([17]; additional data table) was 0.06 µg/mL (≈ 0.2 µM) and the MIC [18] was 0.13 µg/mL (≈ 0.434 µM). The MIC [19] was 0.13 µg/mL (≈ 0.434 µM), the MIC ([19]; additional data table) was 0.03 µg/mL (≈ 0.1 µM) and the “MIC K. pneumoniae A-9664” value [19, 23] was 0.06 µg/mL (≈ 0.2 µM). The “Blood AUC” value [20] was 6000 ng·h/mL, the MIC [21] was 0.25 µg/mL (≈ 0.835 µM) and the MIC ([21]; additional data table) was 0.13 µg/mL (≈ 0.434 µM). The “MIC P. aeruginosa A21213” value [21, 23] was 0.25 µg/mL (≈ 0.835 µM) and the ED50 [22] was 0.07 mg/kg.

— patent publication US4536335A, “Carbapenem antibiotics” (Bristol-Myers Company, priority 1983, dated 1985)
